Measured values as given in patent US20100297102A1, “SEROTONIN 5-HT3A RECEPTORS IN TREATMENT OF NEUROLOGICAL AND PSYCHIATRIC DISORDERS” (priority 2006, published 2010).

Tests used:
EGFP-positive cells = assay: Organotypic slice culture: migration/distribution of EGFP-positive neuroblasts; assay type: cell-based, mice
Method: The presence of functional 5-HT3 receptors on neuroblasts raised the question whether the receptor activation plays a role in the migration and maturation of GABAergic inhibitory neurons in postnatal life. To this end, studies were carried out in organotypic slices obtained from P3 transgenic mice (n=8) and cultured in vitro for 6 days. There were clear alterations in the cortical distribution of EGFP-positive cells in slices treated with the specific 5-HT3 antagonist tropisetron (1 μM) compared to corresponding untreated slices (FIGS. 4, A and B). The decrease in the number of EGFP-expressing cells in tropisetron-treated animals in cortex and hippocampus indicates a deficit in the migration of these cells, rather than cell death since the neuroblasts are still clearly visible in the stream. […] By P3 when slices were made, many EGFP-expressing cells have already reached their destination.
Organotypic slice culture experiments. Organotypic slice cultures were performed as previously described. After 6 days in culture, slices, control or treated with tropisetron (Sigma), were fixed for 1 hr in 4% PFA and processed for immunostaining using polyclonal rabbit anti-EGFP antibody. Cell counts were performed in pairs of matching tropisetron-treated and untreated slices. EGFP-positive cells were counted in deep, in superficial cortical layers and in stratum radiatum of the hippocampus within three standardized rectangular regions of 200×150 μm2 for each region. Data from control and treated slices were analyzed by Student's t test.

transgenic mice = assay: Toxicity of BrdU injections in birthdating experiments; assay type: in vivo
Method: Birthdating analysis. Pregnant mice and P7 transgenic mice were injected intraperitoneally with 50 mg/kg or 300 mg/kg BrdU (Sigma) (body weight), sacrificed after 1 or 4 weeks and processed for immunostaining.
Five BrdU injections (50 mg/kg, intraperitoneally) were administered every 2 hrs apart for 8 hours at E12.5, E14.5, E16.5 and P7 (FIG. 10). […] To avoid a cumulative effect, 5 pulses of BrdU (one pulse per day) were administered from P7 to P12. At P7 two treatments, one with 50 mg/kg and with 300 mg/kg of BrdU were carried.

[1] = after intraperitoneal injection; cited from earlier work
5-HT3 receptor = molecular target: T1, 5-HT3 receptor (Mus musculus, UniProt P23979); assay: Whole-cell patch-clamp of 5-HT3 receptor-mediated inward current in EGFP-positive neurons/neuroblasts in acute slices; assay type: cell-based, mice
T1 sequence (P23979 24-489): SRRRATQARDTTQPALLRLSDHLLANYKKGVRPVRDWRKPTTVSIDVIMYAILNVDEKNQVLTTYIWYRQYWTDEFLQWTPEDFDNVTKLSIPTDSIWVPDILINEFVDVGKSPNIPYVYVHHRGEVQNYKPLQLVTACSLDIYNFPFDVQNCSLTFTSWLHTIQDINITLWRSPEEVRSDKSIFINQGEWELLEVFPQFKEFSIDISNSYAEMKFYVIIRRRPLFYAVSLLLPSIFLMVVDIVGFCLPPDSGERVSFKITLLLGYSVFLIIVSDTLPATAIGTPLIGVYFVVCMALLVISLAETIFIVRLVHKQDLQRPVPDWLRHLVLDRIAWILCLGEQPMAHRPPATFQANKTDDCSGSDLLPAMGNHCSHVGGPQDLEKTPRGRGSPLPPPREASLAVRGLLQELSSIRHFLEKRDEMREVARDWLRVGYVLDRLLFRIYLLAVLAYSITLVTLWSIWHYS
Source text: We thus performed patch-clamp recordings from cells with the typical migratory morphology in the DMS using acute sagittal slices from transgenic animals (FIG. 3, A).
Slice preparation and electrophysiology. 250-350 μm-thick parasagittal brain sections (for recordings in hippocampus, cortex, RMS and DMS) or coronal brain sections (for recordings in amygdala) were made from transgenic mice (P8-P42) using a vibratome (Leica VT1000S). Whole-cell voltage and current clamp recordings were made from visually identified, EGFPpositive neurons using and EPC9 amplifier (HEKA) and an upright microscope (Zeiss Axioskop FS2) equipped with IR-DIC and standard epifluorescence. […] Slices were continuously superfused with ACSF containing (in mM): 120 NaCl, 3.5 KCl, 2.5 CaCl2, 1.3 MgSO4, 1.25 NaH2PO4, 25 NaHCO3, 25 glucose. The presence of functional 5-HT3 receptors was assessed by application of 100 μM 5-HT (dissolved in ACSF) via pressure 12 ejection from a second pipette connected to a picospritzer. Cells were voltage clamped at −60 mV. Signals were filtered at 1-5 kHz, sampled at 2-10 kHz and off-line analysis was performed using Igor Pro (Wavemetrics).

[2] = tropisetron 1 μM, slices from P3 transgenic mice, 6 days in culture, n=8

## CN1[C@@H]2CC[C@H]1C[C@@H](OC(=O)c1c[nH]c3ccccc13)C2 [tropisetron]
EGFP-positive cells; slices from P3 transgenic mice treated with tropisetron, compared to control (FIG. 4)
  cell density in the DMS: increase in cell density in the DMS
EGFP-positive cells; tropisetron 100 nM, n=3
  number of EGFP positive cells in hippocampus, of control levels: 74.7%
  number of EGFP positive cells in superficial cortical layers, of control levels: 81.1%
  number of EGFP positive cells in the deep cortex, of control levels: 70.8%
EGFP-positive cells; [2]
  number of EGFP positive cells in deep cortical layers, of the control level: 68.4%
  number of EGFP positive cells in stratum radiatum of the hippocampus, of the control level: 72.6%
  number of EGFP positive cells in superficial layers, of the control level: 76.4%

## O=c1[nH]c(=O)n([C@H]2C[C@H](O)[C@@H](CO)O2)cc1Br [BrdU]
Transgenic mice; P16 mice after BrdU treatment, 50 mg/kg and 300 mg/kg i.p., dose-dependent
  toxic effects: Hair loss and motor deficits
Transgenic mice; at P16, injected at P7 with 50 mg/kg BrdU, compared to untreated transgenic control mice (FIG. 10F)
  EGFP-positive cell number in the granule cell layer and periglomerular cell layer of the OB: Reduction
Transgenic mice; at P16, injected at P7 with 300 mg/kg BrdU, compared to untreated transgenic control mice (FIG. 10G)
  EGFP-positive cell number in the granule cell layer and periglomerular cell layer of the OB: Reduction
Transgenic mice; at P16 after postnatal treatment with BrdU
  number of EGFP-positive cells in the cortex, the RMS and OB: reduction
[1]
  persistence in the circulation: less than a few hours

## NCCc1c[nH]c2ccc(O)cc12 [5-HT, 5-hydroxytryptamine]
5-HT3 receptor; application of 5-HT (100 μM), mature/spiking neuroblasts in the DMS, 18 out of 22 responded
  5-HT3 receptor-mediated inward current, average amplitude: −46.0±10.5 pA

## CN1[C@@H]2CC[C@H]1C[C@@H](OC(=O)c1cc(Cl)cc(Cl)c1)C2 [MDL72222]
5-HT3 receptor; whole-cell voltage clamped EGFP-positive neurons, n=5 (FIG. 1B)
  block of 5-HT3 receptor-mediated inward current evoked by 100 μM 5-HT: can be blocked
